Test results taken from patent US20220389379A1, “PRIMARY BREAST EPITHELIAL CELL CULTURE MEDIUM, CULTURE METHOD AND USE THEREOF” (PRECEDO PHARMACEUTICALS CO., LTD, priority 2019, published 2022).
Read-outs that look alike come from different tables or passages of the source.

Tests used:
[1] = tested on: primary breast tumor epithelial cells isolated from breast cancer tissues (HMFL-XN1, HMFL-XN3, HMFL-XN4, HMFL-XN6, HMFL-XN8); test: Optimization of primary breast epithelial cell culture medium: cell count after culture with medium additives; type: cell-based, human; design: key: +: compared with the basis medium, the medium added with the additive(s) can promote the proliferation of primary breast tumor epithelial cells isolated from at least three cases of breast cancer tissues; −: the medium added with the additive(s) has the effect of inhibiting proliferation of primary breast tumor epithelial cells isolated from at least two cases of breast cancer tissues; ○: the medium added with this additive(s) has no significant effect on the proliferation of primary breast tumor epithelial cells isolated from at least three cases of breast cancer tissues
Experimental: Matrigel (registered trademark) (manufactured by BD Biosciences) was diluted at 1:100 in serum-free DMEM/F12 medium to prepare an extracellular matrix dilution, which was added to a 48-well culture plate with 200 μl/well to completely cover the bottom of the wells of the culture plate. The resultant was let stand for 1 hour in a 37° C. incubator. After 1 hour, the extracellular matrix dilution was removed to provide a Matrigel-coated plate.
First, a basis medium was prepared. To a commercial DMEM/F-12 medium, GlutaMAX-I (manufactured by Thermo Fisher SCIENTIFIC) was added at the specified concentration (1:100 dilution), human insulin (manufactured by Sigma) was added at a final concentration of 10 μg/ml, ROCK kinase inhibitor Y27632 (manufactured by Sigma) was added at a final concentration of 10 μM, and penicillin-streptomycin (manufactured by Thermo Fisher SCIENTIFIC) was added at a 1:100 dilution ratio, which provides the basis medium.
Next, different types of additives (as shown in Table 1) were added to the basis medium to prepare breast epithelial cell culture mediums containing different supplementary components, and the mediums with different components were added at a volume of 500 μl/well to 48-well plates which were coated with extracellular matrix gel (Matrigel). Breast tumor cells (HMFL-XN1) isolated from breast cancer tissue in step (1) of this Example were inoculated in a Matrigel-coated 48-well culture plate at a cell density of 1×10^4 cells/well, and equal numbers of freshly isolated breast tumor cells (HMFL-XN1) were cultured under different medium formulations at 37° C., under 5% CO2 concentration and 20% oxygen concentration. The medium was renewed every 4 days after the start of the culture. After 10 days of culture, cell counts were performed. As an experiment control, the basis medium without any additives was used. Breast tumor cells isolated from the remaining four breast cancer tissue samples were cultured and counted in the same manner as above.

[2] = tested on: breast tumor cells (HMFL-XN7); test: Drug sensitivity functional test, Cell Titer-Glo cell viability; type: cell-based; conditions: Homo sapiens; HMFL-XN7, hormone receptor-positive, HER2 receptor-negative patient; 72 hours after administration; read-out: half-inhibition rate IC50
Experimental: (§1) 1. Plating of primary breast tumor cells: the single cell suspension of breast tumor cells (HMFL-XN5, HMFL-XN7, HMFL-XN10, HMFL-XN12, and HMFL-XN29) obtained by the same method of the invention according to step (3) of Example 4, was inoculated at a density of 3000-5000 cells/well in a 384-well plate, and the cells were adhered overnight.
(§2) (1) The drug storage plates were prepared by gradient dilution method: 10 μL of the drug stock solutions to be tested (the concentration of the drug stock solution was determined based on 2 times of the maximum blood concentration Cmax of the drug in the human body) were respectively taken, and added to 0.5 mL EP tubes containing 20 μL of DMSO; 10 μL of solutions from the above EP tubes were pipetted into second 0.5 mL EP tubes loaded with 20 μL of DMSO, that is, diluting the drugs in a ratio of 1:3. The above method was repeated for gradually dilution and 7 concentrations required for dosing were obtained. Different concentrations of drugs were added to the 384-well drug storage plates. Equal volume of DMSO was added to each well of the solvent control group as a control. In this example, the drugs to be tested were epirubicin (manufactured by MCE), lapatinib (manufactured by MCE), docetaxel (manufactured by MCE), and tamoxifen (manufactured by MCE).
(§3) (2) Using a high-throughput automated workstation (purchased from Perkin Elmer), different concentrations of drugs and solvent controls in the 384-well drug storage plates were added to 384-well cell culture plates plated with the breast tumor cells. […]
(§4) (3) Test of cell viability: 72 hours after administration, Cell Titer-Glo assay kit (manufactured by Promega) was used to detect the chemiluminescence value of the cultured cells after drug administration. […] The prepared Cell Titer-Glo detection solution was added to each well, and a microplate reader was used to detect the chemiluminescence value after mixing.
(§5) Graphs were made by using Graphpad Prism 7.0 software and the half-inhibition rate IC50 was calculated.

[3] = tested on: breast tumor cells (HMFL-XN29); test: as above; type: cell-based, human; conditions: HMFL-XN29, triple-negative patient; 72 hours after administration
Experimental: as §1
(1) The drug storage plates were prepared by gradient dilution method: 10 μL of the drug stock solutions to be tested (the concentration of the drug stock solution was determined based on 2 times of the maximum blood concentration Cmax of the drug in the human body) were respectively taken, and added to 0.5 mL EP tubes containing 20 μL of DMSO; 10 μL of solutions from the above EP tubes were pipetted into second 0.5 mL EP tubes loaded with 20 μL of DMSO, that is, diluting the drugs in a ratio of 1:3. […]
as §4, §5

[4] = tested on: breast tumor cells (HMFL-XN12); test: as above; type: cell-based; conditions: Homo sapiens; HMFL-XN12, HER2-positive patient; 72 hours after administration; read-out: half-inhibitory amount (IC50)
Experimental: as §1, §2, §3, §4, §5

[5] = additive at the concentration given in Table 1 added to basis medium, cell count after 10 days of culture, compared with basis medium, five breast cancer samples

Row | Molecule | Degree of cell [1, 5] | other results
1 | Cc1ccc2c(c1)C(=O)C1(O)CCN(c3ccccc3)C1=N2 (centres unmarked) [Blebbistatin, reference compound] | − | 
2 | Cc1cccc(-c2nn(C(=S)Nc3ccccc3)cc2-c2ccnc3ccccc23)n1 [A8301, reference compound] | + | 
3 | Human leukemia inhibitory factor: medium additive (Peprotech) | − | 
4 | NC(=O)c1cccnc1 [Nicotinamide, reference compound] | − | 
5 | CC/C(=C(\c1ccccc1)c1ccc(OCCN(C)C)cc1)c1ccccc1 [tamoxifen] |  | IC50 [2]: 980 nM; drug sensitivity compared with breast tumor cells from other patients [3]: less sensitive
6 | Interleukin 6: medium additive (R&D) | − | 
7 | CCCCC[C@H](O)/C=C/[C@H]1[C@H](O)CC(=O)[C@@H]1C/C=C\CCCC(=O)O [Prostaglandin E2, reference compound] | − | 
8 | Cholera toxin |  | Degree of cell [1]: ○
9 | N[C@@H](Cc1cc(I)c(Oc2ccc(O)c(I)c2)c(I)c1)C(=O)O [Triiodothyronine, reference compound] | ○ | 
10 | CS(=O)(=O)CCNCc1ccc(-c2ccc3ncnc(Nc4ccc(OCc5cccc(F)c5)c(Cl)c4)c3c2)o1 [lapatinib] |  | IC50 [4]: 920 nM; IC50 [2]: 2500 nM; drug sensitivity compared with breast tumor cells from other patients [3]: less sensitive
11 | Neuregulin 1 | + | 
12 | Epidermal growth factor: epidermal growth factor (EGF), medium additive (NSDSECPLSHDGYCLHDGVCMYIEALDKYACNCVVGYIGERCQYRDLKWWELR; UniProt P01133 971-1023, looked up) | + | 
13 | Oc1ccc(-c2nc(-c3ccncc3)c(-c3ccc(F)cc3)[nH]2)cc1 [SB202190, reference compound] | + | 
14 | Basic fibroblast growth factor: medium additive (R&D) | + | 
15 | Hepatocyte growth factor: medium additive (Peprotech) | + | 
16 | Insulin growth factor1: medium additive (Peprotech) | + | 
17 | CC(=O)N[C@@H](CS)C(=O)O [N-Acetyl Cysteine, reference compound] | − | 
